From patent publication US20220251141A1, “IMMUNOMODULATORS” (Bristol-Myers Squibb Company, priority 2019, published 2022)
Where a name gives a salt, the structure may show the parent alone. Numbered stars: 1 amine (or outer) side, 2 acyl side, 3 side chain; on linkers, the order of the positions; unused ones are H or OH. Bridge positions count the residues as written; N and C are the ends. Square brackets hold non-standard residues; d marks the D form. Peptide text beside a SMILES is read from it. * marks the point of attachment. Trp(1-CH2CO2Me) = COC(=O)Cn1cc(C[C@H](N)C(=O)O)c2ccccc21; Trp(1-CH2COOH) = N[C@@H](Cc1cn(CC(=O)O)c2ccccc12)C(=O)O; X2 = C/C(=N\C#N)NC[C@H](N[*:1])C(=O)[*:2]; Octyloxycarbonyl = CCCCCCCCOC(=O)*; Hexyloxycarbonyl = CCCCCCOC(=O)*; Hyp = O=C(O)[C@@H]1C[C@@H](O)CN1; Myristoyl = CCCCCCCCCCCCCC(=O)*; NMeNle = CCCC[C@H](NC)C(=O)O; Decanoyl = CCCCCCCCCC(=O)*; Ethoxycarbonyl = CCOC(=O)*; NMeA = CN[C@@H](C)C(=O)O; Dab = NCC[C@H](N)C(=O)O; X13 = CCCCCCCCCCOC(=O)*; Dap = NC[C@H](N)C(=O)O; Hexanoyl = CCCCCC(=O)*; Boc = CC(C)(C)OC(=O)*; Tfa = O=C(C(F)(F)F)*; X3 = O=C(OCCF)*

biological target: T1, PD-1/PD-L1 (Homo sapiens, UniProt Q9NZQ7); experiment: PD-1/PD-L1 Homogenous Time-Resolved Fluorescence (HTRF) binding assay; settings: PD-L1-His 10 nM final, PD-1-Ig 20 nM final; inhibitors pre-incubated with PD-L1-His for 15 m
T1 construct: TVMV protease site linker (C); made in house; host or cells: HEK293T cells
Source text: The ability of the compounds of formula (I) to bind to PD-L1 was investigated using a PD-1/PD-L1 Homogenous Time-Resolved Fluorescence (HTRF) binding assay.
The interaction of PD-1 and PD-L1 can be assessed using soluble, purified preparations of the extracellular domains of the two proteins. The PD-1 and PD-L1 protein extracellular domains were expressed as fusion proteins with detection tags, for PD-1, the tag was the Fc portion of Immunoglobulin (PD-1-Ig) and for PD-L1 it was the 6 histidine motif (PD-L1-His). All binding studies were performed in an HTRF assay buffer consisting of dPBS supplemented with 0.1% […] bovine serum albumin and 0.05% (v/v) Tween-20. For the h/PD-L1-His binding assay, inhibitors were pre-incubated with PD-L1-His (10 nM final) for 15 m in 4 μl of assay buffer, followed by addition of PD-1-Ig (20 nM final) in 1 μl of assay buffer and further incubation for 15 m. HTRF detection was achieved using europium cryptate-labeled anti-Ig (1 nM final) and allophycocyanin (APC) labeled anti-His (20 nM final). Antibodies were diluted in HTRF detection buffer and 5 μl was dispensed on top of the binding reaction. The reaction mixture was allowed to equilibrate for 30 minutes and the resulting signal (665 nm/620 nm ratio) was obtained using an EnVision fluorometer. Additional binding assays were established between the human proteins PD-1-Ig/PD-L2-His (20 & 5 nM, respectively) and CD80-His/PD-L1-Ig (100 & 10 nM, respectively).
Recombinant Proteins: Human PD-1 (25-167) with a C-terminal human Fc domain of immunoglobulin G (Ig) epitope tag [hPD-1 (25-167)-3S-IG] and human PD-L1 (18-239) with a C-terminal His epitope tag [hPD-L1(18-239)-TVMV-His] were expressed in HEK293T cells and purified sequentially by Protein A affinity chromatography and size exclusion chromatography. Human PD-L2-His and CD80-His was obtained through commercial sources.
Table 3 lists the IC50 values for representative examples of this disclosure measured in the PD-1/PD-L1 Homogenous Time-Resolved Fluorescence (HTRF) binding assay.

Compound	IC50 [nM]
CCCCCCCCCC(=O)NCC[C@@H]1NC(=O)[C@H](Cc2c[nH]c3ccccc23)NC(=O)[C@@H]2C[C@@H](O)CN2C(=O)[C@H](CC(C)C)NC(=O)[C@H](CNC(=O)CCCCCCCCC)NC(=O)[C@@H]2CCCN2C(=O)[C@H](CC(N)=O)NC(=O)[C@H](C)N(C)C(=O)[C@H](Cc2ccc(O)cc2)NC(=O)CSC[C@@H](C(=O)NCC(N)=O)NC(=O)[C@H](CC(C)C)NC(=O)[C@H](CCCC)N(C)C(=O)[C@H](CCCC)N(C)C(=O)[C@H](Cc2cn(CC(=O)O)c3ccccc23)NC1=O [Example 1003] ({CH2CO}-Y[NMeA]NP[Dap](Decanoyl)L[Hyp]W[Dab](Decanoyl)[Trp(1-CH2COOH)][NMeNle][NMeNle]LCG-NH2; thioether N-14)	37
CCCCCCCCCC(=O)NCC[C@@H]1NC(=O)[C@H](Cc2c[nH]c3ccccc23)NC(=O)[C@@H]2C[C@@H](O)CN2C(=O)[C@H](CC(C)C)NC(=O)[C@H](CNC(=O)CCCCCCCCC)NC(=O)[C@@H]2CCCN2C(=O)[C@H](CC(N)=O)NC(=O)[C@H](C)N(C)C(=O)[C@H](Cc2ccc(O)cc2)NC(=O)CSC[C@@H](C(=O)NCC(N)=O)NC(=O)[C@H](CC(C)C)NC(=O)[C@H](CCCC)N(C)C(=O)[C@H](CCCC)N(C)C(=O)[C@H](Cc2cn(CC(=O)OC)c3ccccc23)NC1=O [Example 1004] ({CH2CO}-Y[NMeA]NP[Dap](Decanoyl)L[Hyp]W[Dab](Decanoyl)[Trp(1-CH2CO2Me)][NMeNle][NMeNle]LCG-NH2; thioether N-14)	> 10000
CCCCCCCCCCCCCC(=O)NCC[C@@H]1NC(=O)[C@H](Cc2c[nH]c3ccccc23)NC(=O)[C@@H]2C[C@@H](O)CN2C(=O)[C@H](CC(C)C)NC(=O)[C@H](CNC(=O)CCCCCCCCCCCCC)NC(=O)[C@@H]2CCCN2C(=O)[C@H](CC(N)=O)NC(=O)[C@H](C)N(C)C(=O)[C@H](Cc2ccc(O)cc2)NC(=O)CSC[C@@H](C(=O)NCC(N)=O)NC(=O)[C@H](CC(C)C)NC(=O)[C@H](CCCC)N(C)C(=O)[C@H](CCCC)N(C)C(=O)[C@H](Cc2cn(CC(=O)OC)c3ccccc23)NC1=O [Example 1005] ({CH2CO}-Y[NMeA]NP[Dap](Myristoyl)L[Hyp]W[Dab](Myristoyl)[Trp(1-CH2CO2Me)][NMeNle][NMeNle]LCG-NH2; thioether N-14)	> 10000
CCCCCC(=O)NCC[C@@H]1NC(=O)[C@H](Cc2c[nH]c3ccccc23)NC(=O)[C@@H]2C[C@@H](O)CN2C(=O)[C@H](CC(C)C)NC(=O)[C@H](CNC(=O)CCCCC)NC(=O)[C@@H]2CCCN2C(=O)[C@H](CC(N)=O)NC(=O)[C@H](C)N(C)C(=O)[C@H](Cc2ccc(O)cc2)NC(=O)CSC[C@@H](C(=O)NCC(N)=O)NC(=O)[C@H](CC(C)C)NC(=O)[C@H](CCCC)N(C)C(=O)[C@H](CCCC)N(C)C(=O)[C@H](Cc2cn(CC(=O)OC)c3ccccc23)NC1=O [Example 1006] ({CH2CO}-Y[NMeA]NP[Dap](Hexanoyl)L[Hyp]W[Dab](Hexanoyl)[Trp(1-CH2CO2Me)][NMeNle][NMeNle]LCG-NH2; thioether N-14)	22
CCCC[C@H]1C(=O)N(C)[C@@H](CCCC)C(=O)N[C@@H](CC(C)C)C(=O)N[C@H](C(=O)NCC(N)=O)CSCC(=O)N[C@@H](Cc2ccc(O)cc2)C(=O)N(C)[C@@H](C)C(=O)N[C@@H](CC(N)=O)C(=O)N2CCC[C@H]2C(=O)N[C@@H](CNC(=O)C(F)(F)F)C(=O)N[C@@H](CC(C)C)C(=O)N2C[C@H](O)C[C@H]2C(=O)N[C@@H](Cc2c[nH]c3ccccc23)C(=O)N[C@@H](CCNC(=O)C(F)(F)F)C(=O)N[C@@H](Cc2cn(CC(=O)O)c3ccccc23)C(=O)N1C [Example 1007] ({CH2CO}-Y[NMeA]NP[Dap](Tfa)L[Hyp]W[Dab](Tfa)[Trp(1-CH2COOH)][NMeNle][NMeNle]LCG-NH2; thioether N-14)	3.3
CCCC[C@H]1C(=O)N(C)[C@@H](CCCC)C(=O)N[C@@H](CC(C)C)C(=O)N[C@H](C(=O)NCC(N)=O)CSCC(=O)N[C@@H](Cc2ccc(O)cc2)C(=O)N(C)[C@@H](C)C(=O)N[C@@H](CC(N)=O)C(=O)N2CCC[C@H]2C(=O)N[C@@H](CN/C(C)=N/C#N)C(=O)N[C@@H](CC(C)C)C(=O)N2C[C@H](O)C[C@H]2C(=O)N[C@@H](Cc2c[nH]c3ccccc23)C(=O)N[C@@H](CCN)C(=O)N[C@@H](Cc2cn(CC(=O)O)c3ccccc23)C(=O)N1C [Example 1009] ({CH2CO}-Y[NMeA]NP[X2]L[Hyp]W[Dab][Trp(1-CH2COOH)][NMeNle][NMeNle]LCG-NH2; thioether N-14)	5.5
CCCC[C@H]1C(=O)N(C)[C@@H](CCCC)C(=O)N[C@@H](CC(C)C)C(=O)N[C@H](C(=O)NCC(N)=O)CSCC(=O)N[C@@H](Cc2ccc(O)cc2)C(=O)N(C)[C@@H](C)C(=O)N[C@@H](CC(N)=O)C(=O)N2CCC[C@H]2C(=O)N[C@@H](CNC(=O)OCC)C(=O)N[C@@H](CC(C)C)C(=O)N2C[C@H](O)C[C@H]2C(=O)N[C@@H](Cc2c[nH]c3ccccc23)C(=O)N[C@@H](CCNC(=O)OCC)C(=O)N[C@@H](Cc2cn(CC(=O)OC)c3ccccc23)C(=O)N1C [Example 1010] ({CH2CO}-Y[NMeA]NP[Dap](Ethoxycarbonyl)L[Hyp]W[Dab](Ethoxycarbonyl)[Trp(1-CH2CO2Me)][NMeNle][NMeNle]LCG-NH2; thioether N-14)	3.9
CCCC[C@H]1C(=O)N(C)[C@@H](CCCC)C(=O)N[C@@H](CC(C)C)C(=O)N[C@H](C(=O)NCC(N)=O)CSCC(=O)N[C@@H](Cc2ccc(O)cc2)C(=O)N(C)[C@@H](C)C(=O)N[C@@H](CC(N)=O)C(=O)N2CCC[C@H]2C(=O)N[C@@H](CNC(=O)OCCF)C(=O)N[C@@H](CC(C)C)C(=O)N2C[C@H](O)C[C@H]2C(=O)N[C@@H](Cc2c[nH]c3ccccc23)C(=O)N[C@@H](CCNC(=O)OCCF)C(=O)N[C@@H](Cc2cn(CC(=O)OC)c3ccccc23)C(=O)N1C [Example 1012] ({CH2CO}-Y[NMeA]NP[Dap](X3)L[Hyp]W[Dab](X3)[Trp(1-CH2CO2Me)][NMeNle][NMeNle]LCG-NH2; thioether N-14)	19
CCCCCCCCOC(=O)NCC[C@@H]1NC(=O)[C@H](Cc2c[nH]c3ccccc23)NC(=O)[C@@H]2C[C@@H](O)CN2C(=O)[C@H](CC(C)C)NC(=O)[C@H](CNC(=O)OCCCCCCCC)NC(=O)[C@@H]2CCCN2C(=O)[C@H](CC(N)=O)NC(=O)[C@H](C)N(C)C(=O)[C@H](Cc2ccc(O)cc2)NC(=O)CSC[C@@H](C(=O)NCC(N)=O)NC(=O)[C@H](CC(C)C)NC(=O)[C@H](CCCC)N(C)C(=O)[C@H](CCCC)N(C)C(=O)[C@H](Cc2cn(CC(=O)OC)c3ccccc23)NC1=O [Example 1013] ({CH2CO}-Y[NMeA]NP[Dap](Octyloxycarbonyl)L[Hyp]W[Dab](Octyloxycarbonyl)[Trp(1-CH2CO2Me)][NMeNle][NMeNle]LCG-NH2; thioether N-14)	1100
CCCC[C@H]1C(=O)N(C)[C@@H](CCCC)C(=O)N[C@@H](CC(C)C)C(=O)N[C@H](C(=O)NCC(N)=O)CSCC(=O)N[C@@H](Cc2ccc(O)cc2)C(=O)N(C)[C@@H](C)C(=O)N[C@@H](CC(N)=O)C(=O)N2CCC[C@H]2C(=O)N[C@@H](CNC(=O)OC(C)(C)C)C(=O)N[C@@H](CC(C)C)C(=O)N2C[C@H](O)C[C@H]2C(=O)N[C@@H](Cc2c[nH]c3ccccc23)C(=O)N[C@@H](CCNC(=O)OC(C)(C)C)C(=O)N[C@@H](Cc2cn(CC(=O)O)c3ccccc23)C(=O)N1C [Example 1014] ({CH2CO}-Y[NMeA]NP[Dap](Boc)L[Hyp]W[Dab](Boc)[Trp(1-CH2COOH)][NMeNle][NMeNle]LCG-NH2; thioether N-14)	6.1
CCCCCCCCCCOC(=O)NCC[C@@H]1NC(=O)[C@H](Cc2c[nH]c3ccccc23)NC(=O)[C@@H]2C[C@@H](O)CN2C(=O)[C@H](CC(C)C)NC(=O)[C@H](CNC(=O)OCCCCCCCCCC)NC(=O)[C@@H]2CCCN2C(=O)[C@H](CC(N)=O)NC(=O)[C@H](C)N(C)C(=O)[C@H](Cc2ccc(O)cc2)NC(=O)CSC[C@@H](C(=O)NCC(N)=O)NC(=O)[C@H](CC(C)C)NC(=O)[C@H](CCCC)N(C)C(=O)[C@H](CCCC)N(C)C(=O)[C@H](Cc2cn(CC(=O)OC)c3ccccc23)NC1=O [Example 1015] ({CH2CO}-Y[NMeA]NP[Dap](X13)L[Hyp]W[Dab](X13)[Trp(1-CH2CO2Me)][NMeNle][NMeNle]LCG-NH2; thioether N-14)	> 10000
CCCCCCOC(=O)NCC[C@@H]1NC(=O)[C@H](Cc2c[nH]c3ccccc23)NC(=O)[C@@H]2C[C@@H](O)CN2C(=O)[C@H](CC(C)C)NC(=O)[C@H](CNC(=O)OCCCCCC)NC(=O)[C@@H]2CCCN2C(=O)[C@H](CC(N)=O)NC(=O)[C@H](C)N(C)C(=O)[C@H](Cc2ccc(O)cc2)NC(=O)CSC[C@@H](C(=O)NCC(N)=O)NC(=O)[C@H](CC(C)C)NC(=O)[C@H](CCCC)N(C)C(=O)[C@H](CCCC)N(C)C(=O)[C@H](Cc2cn(CC(=O)OC)c3ccccc23)NC1=O [Example 1016] ({CH2CO}-Y[NMeA]NP[Dap](Hexyloxycarbonyl)L[Hyp]W[Dab](Hexyloxycarbonyl)[Trp(1-CH2CO2Me)][NMeNle][NMeNle]LCG-NH2; thioether N-14)	12
